Assay results published in publication PMC10296061, “Inhibition of the Mitochondrial Carnitine/Acylcarnitine Carrier by Itaconate through Irreversible Binding to Cysteine 136: Possible Pathophysiological Implications” (Biomolecules, 2023).
Residue numbers refer to the chain shown, from its start.

Legend:
[1] = biological target: T1, CAC C23V/C58V/C89S/C136V/C155V/C283S (C-less) mutant (Rattus norvegicus, UniProt P97521, C136V/C155V/C23V/C283S/C58V/C89S); assay: Transport assay in proteoliposomes, C-less CAC mutant; format: biochemical
T1 construct: made in house; host or cells: E. coli C0214
T1 sequence (P97521 1-301 C23V/C58V/C89S/C136V/C155V/C283S): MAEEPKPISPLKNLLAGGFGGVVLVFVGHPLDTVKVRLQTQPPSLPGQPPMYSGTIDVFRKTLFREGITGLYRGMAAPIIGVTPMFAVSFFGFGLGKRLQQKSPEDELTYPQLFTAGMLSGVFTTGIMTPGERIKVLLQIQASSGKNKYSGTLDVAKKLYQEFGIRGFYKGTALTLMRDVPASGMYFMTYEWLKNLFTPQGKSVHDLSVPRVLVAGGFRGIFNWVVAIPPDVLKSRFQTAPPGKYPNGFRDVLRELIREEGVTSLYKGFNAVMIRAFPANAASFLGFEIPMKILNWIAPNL
Experimental: (§1) As previously described, the pMW7-WTratCAC recombinant plasmid was used for over-expressing the rat CAC [22]. The overlap extension method was used to introduce the mutations; in the main time, NdeI and HindIII restriction sites were also added using appropriate primers. The PCR products were purified by the QIAEX II Gel Extraction Kit (QIAGEN) and digested with NdeI and HindIII and then ligated into the pMW7. All mutations were verified by DNA sequencing. The resulting plasmid constructs were transformed into E. coli C0214. Overexpression, inclusion body fraction preparation, and purification of the CAC proteins were performed as previously described.
(§2) As previously described, recombinant CAC (WT and mutants) and ORC1 proteins were used for proteoliposome formation. For experiments with native CAC, ORC1, or ANT proteins, rat liver mitochondria, or HeLa cell mitochondria, the latter for the CAC alone, were first purified using the standard procedure of cell disruption and differential centrifugation. Then proteins were extracted using 3% Triton X-100 and reconstituted as described for the recombinant proteins. The concentration of intraliposomal carnitine and ornithine was 15 mM and 30 mM, respectively, in all samples.
(§3) To test the transport activity of the CAC, 550 μL of proteoliposomes was passed through a Sephadex G-75 column to remove the external substrate. Six hundred μL of the turbid eluate was collected, divided into samples of 100 μL each, and used for transport measurement by the inhibitor-stop method. Transport was started by adding 0.1 mM [^3H]carnitine ([^3H]ornitine or [^3H]ATP) to proteoliposome samples and stopped with 1.5 mM NEM (N-ethylmaleimide) at the indicated time interval. In the control samples, NEM was added with the labeled substrate at time zero. Transport rates were measured in 10 min, i.e., within the initial linear range of the time course, at 25 °C. After terminating the transport reaction, the external substrate was removed by chromatography on the Sephadex G-75 column, and the intraliposomal radioactivity was measured. The experimental values were corrected by subtracting the controls.
Figure 3 Identification of residue responsible for itaconate inhibition. (a) Dose–response analysis of the Cys mutants of CAC for the inhibition by itaconate was performed. Transport activity of the WT (○), C136A (●), C155A (Δ), C23V/C58V/C89S/C155V/C283S (▲), and C23V/C58V/C89S/C136V/C155V/C283S (□) was measured by adding 0.1 mM [^3H]carnitine after treatment by itaconate at the indicated concentrations. Transport activity (µmol/10 min/mg) is: WT 1.80 ± 0.31; C136A 0.91 ± 0.10; C155A 1.00 ± 0.17; C23V/C58V/C89S/C155V/C283S 1.02 ± 0.159; C23V/C58V/C89S/C136V/C155V/C283S 0.71 ± 0.22. (b) Dose–response analysis of proteoliposomes reconstituted native (○) or recombinant ORC (●) incubated with itaconate at the indicated concentrations. Transport activity was measured by adding 0.1 [^3H]ornithine, respectively, as described in Materials and Methods. The data are expressed as a percent of the controls (no addition of itaconate) and are means ± SD from three independent experiments.
Figure 4 Lysine contribution to CAC inhibition by itaconate. Protection of PLP (pyridoxal phosphate) from inhibition by itaconate on C-less CAC was carried out. C-less mutant (i.e., C23V/C58V/C89S/C136V/C155V/C283S) was reconstituted into proteoliposomes and treated or not treated with 30 mM PLP for 10 min (“Contr” or “PLP” column, respectively). […]

CAC from HeLa cells = biological target: T2, CAC from HeLa cells (Homo sapiens, UniProt O43772); assay: HeLa cells treated with DMI, CAC extracted from mitochondria and reconstituted for transport assay; format: cell-based; conditions: 10 mM DMI, 45 min
T2 construct: CAC from mitochondria protein extract of HeLa cells treated with 10 mM DMI or vehicle (control) was reconstituted in proteoliposomes; endogenous in cells; host or cells: HeLa cells
T2 sequence (O43772 1-301): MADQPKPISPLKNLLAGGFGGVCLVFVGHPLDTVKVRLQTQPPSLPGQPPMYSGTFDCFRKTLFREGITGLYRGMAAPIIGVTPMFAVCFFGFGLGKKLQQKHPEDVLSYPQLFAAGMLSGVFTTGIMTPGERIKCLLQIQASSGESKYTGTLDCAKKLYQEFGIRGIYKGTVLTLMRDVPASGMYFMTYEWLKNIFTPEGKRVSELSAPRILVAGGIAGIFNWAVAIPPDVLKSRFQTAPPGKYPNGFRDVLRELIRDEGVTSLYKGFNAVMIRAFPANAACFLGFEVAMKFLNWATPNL
Excerpt: as §2
To test the transport activity of the CAC, 550 μL of proteoliposomes was passed through a Sephadex G-75 column to remove the external substrate. […] Transport rates were measured in 10 min, i.e., within the initial linear range of the time course, at 25 °C. After terminating the transport reaction, the external substrate was removed by chromatography on the Sephadex G-75 column, and the intraliposomal radioactivity was measured. […]
Figure 10 Effect of dimethyl itaconate (DMI) on CAC. […] Thus, the transport activity was measured for 10 min by adding to proteoliposomes 0.1 mM [^3H]carnitine. […] Transport activity in the presence or absence of DTE was measured as described in Materials and Methods. […]

recombinant CAC (WT) = biological target: T3, recombinant CAC (WT) (Rattus norvegicus, UniProt P97521); assay: [3H]carnitine/carnitine antiport in proteoliposomes reconstituted with recombinant WT CAC; format: biochemical; conditions: recombinant WT CAC, pH 6.5, 10 min incubation; read-out: IC50 for inhibition of transport at pH 6.5
T3 construct: made in house; host or cells: E. coli C0214
T3 sequence (P97521 1-301): T1 sequence (P97521 1-301 C23V/C58V/C89S/C136V/C155V/C283S) with V23C, V58C, S89C, V136C, V155C, S283C
Experimental: as §1, §2, §3
Figure 1 Effect of itaconate on the native and recombinant mitochondrial carnitine/acylcarnitine (CAC). Dose–response analysis for itaconate inhibition was carried out using proteoliposomes reconstituted with native (○) or recombinant (●) CAC carriers. After 10 min of itaconate incubation, transport activity was started by adding 0.1 mM [^3H]carnitine and stopped after 10 min as described in Section 2. Percent of residual activity with respect to the control, without itaconate treatment, was reported. The values are the means ± SD from three independent experiments.
Figure 2 Effect of different pH on the inhibition of CAC protein by itaconate. (a) Proteoliposomes reconstituted with the recombinant CAC were incubated at various pHs (range pH 6.5–8.5) for 10 min with 10 mM itaconate. (b) Dose–response analysis of inhibition by itaconate of the recombinant CAC at pH 6.5. was performed. Proteoliposomes were incubated for 10 min at pH 6.5 with itaconate at the indicated concentrations. In both (a,b), the transport activity was measured for 10 min by adding to proteoliposomes 0.1 mM [^3H]carnitine.

| SMILES | inhibition at 30000 µM ([1]; 30 mM PLP for 10 min) [%] | reversibility of inhibition after removal of PLP by size exclusion chromatography (G-75) ([1]; 30 mM PLP, then G-75) | CAC transport activity after treatment of cells (CAC from HeLa cells) | reversal of inhibition by DTE (CAC from HeLa cells; DTE in transport assay) | IC50 (recombinant CAC (WT)) [mM] |
| --- | --- | --- | --- | --- | --- |
| Cc1ncc(COP(=O)(O)O)c(C=O)c1O [PLP, pyridoxal 5′-phosphate, reference compound] | ~75 | fully reversed |  |  |  |
| C=C(CC(=O)OC)C(=O)OC [dimethyl itaconate] |  |  | strongly inhibited | could not be reversed | 20 ± 4.9 |
